Test results: patent US20080200501A1, “NOVEL CANNABINOID RECEPTOR LIGANDS, PHARMACEUTICAL COMPOSITIONS CONTAINING THEM, AND PROCESSES FOR THEIR PREPARATION” (Glenmark Pharmaceuticals S.A., priority 2006, published 2008)

Columns and labels:
[1] = Pharmacokinetic study, single oral dose in rats; format: in vivo; settings: Sprague-Dawley, rat; mean; male Sprague-Dawly rats, single oral dose 10 mg/kg in 0.5% methylcellulose suspension, overnight fasted; plasma, HPLC-UV
Method: Male Sprague-Dawly rats were administered by oral gavage a single oral dose of 10 mg/kg b.wt. test compound in 0.5% methylcellulose suspension in overnight fasted (12 hrs before dose) condition. Fasting was continued till 4 hr post dose. Blood samples were collected predose and at 15 and 30 minutes and 1, 2, 3, 4, 6, 8, 12 and 24 hrs post-dose and were kept on an ice bath till further processing. These samples were separated for plasma by centrifuging at 4° C. for 10 minutes at 1000×g and then stored at −70° C. till further analysis. These samples were analyzed for the levels of the test compound by HPLC-UV and the pharmacokinetic parameters were calculated using these concentrations by using WinNonlin software (Pharsight Inc., USA, Version 5.1).

Row | SMILES | AUC(0-inf) [1] [ng·h/mL] | AUC(0-t) [1] [ng·h/mL] | Cmax [1] [ng/mL] | Tmax [1] [h] | half-life [1] [h] | melting point [°C]
1 | CC(C)(CO)NC(=O)c1nn(-c2ccc(Cl)cc2)c2c1[C@@H]1CC[C@H]2C1 (single isomer, unassigned) [Compound 98, (1S,7R)- or (1R,7S)-N5-(2-Hydroxy-1,1-dimethylethyl)-3-(4-chlorophenyl)-3,4-diazatricyclo[5.2.1.0^2,6]deca-2(6),4-diene-5-carboxamide] | 12000 | 11700 | 1950 | 0.5 | 4.77 | –
2 | CCCCCC(C)(C)NC(=O)c1nn(-c2ccc(F)cc2F)c2c1C1CCC2C1 (stereo not drawn) | – | – | – | – | – | 76 to 78
